Columns and labels:
[1] = system: BDNF promoter IV / BDNF expression; assay: BDNF expression in mouse cortical neurons (RT-qPCR); format: cell-based
Protocol: FIGS. 3A-3E depict targeted demethylation of BDNF promoter IV by dCas9-Tet1 to activate BDNF in neurons. FIG. 3A provides a schematic representation of targeting BDNF promoter IV by dCas9-Tet1 (dC-T) with specific gRNAs to erase methylation and activate BDNF expression. […] Bars are mean t SD of three biological replicates. FIG. 3C provides representative confocal images for BDNF induction in FIG. 3B. Top panel: BDNF expression was induced by 50 mM KCl treatment for 6 hrs. […] Stained in red for MAP2 (top two panels) or Cherry (bottom two panels), green for BDNF, blue for DAPI and grey for dCas9. Scale bar: 50 um. FIG. 3D depicts bisulfite sequencing of neurons in FIG. 3C. […] Shown is the mean percentage±SD of two biological replicates.
FIGS. 11A-11L depict targeted demethylation of BDNF promoter IV by dCas9-Tet1 in neurons. […] PAM for each gRNA is highlighted by a red box. […] Note that cultured neurons were treated with AraC on DIV2 to halt cell division in glial cells and neural progenitors. […] FIG. 11C provides EDU labeling analysis for the mouse primary neurons over the course of KCl treatment for 24 hrs. Note that extremely few EDU positive cells were observed. Stained in red for EDU, green for MAP2 and DAPI for nuclei. Scale bar: 500 um. FIG. 11D Upper panel: provides quantification of neuronal density over the course of KCl treatment. The post-mitotic neuron density remains steadily around 4.5×10^4/cm2 over time. Bars represent mean±SD of three experimental replicates. Lower panel: provides quantification of the EDU positive cells over the course of KCl treatment. Less than 2% of the cells are EDU-positive over 24 hrs. Bars represent mean±SD of three experimental replicates. FIG. 11E provides confocal micrographs of BDNF induction by ectopic expression of dCas9-Tet1 and a set of 4 gRNAs targeting BDNF promoter IV. Stained in green for BDNF, magenta for MAP2, red for Cherry and blue for DAPI. Note that the lentiviral infection efficiency is close to 100% in these neurons. Scale bar: 50 um. […] Bars represent mean±SD of three experimental replicates. […] FIG. 11J depicts DIV3 mouse cortical neurons were treated with ABT (50 uM) for 6 hours and then treated with KCl (50 mM) for 6-hour before harvest for RT-qPCR analysis. Bars represent mean±SD of three experimental replicates. FIG. 11K depicts DIV3 mouse cortical neurons were treated with 2-Hydroxyglutarate (10 mM) for 2 hours and then treated with KCl (50 mM) for 6-hour before harvest for RT-qPCR analysis. Bars represent mean±SD of three experimental replicates. FIG. 11L depicts DIV3 mouse cortical neurons derived from wild-type or Tet1 knockout E17.5 embryos were subject to time course KCl treatment experiments (6, 9 and 12 h). Bars represent mean±SD of three experimental replicates.
DNA replication-independent active demethylation has been proposed to operate in post-mitotic neurons (Guo et al., 2011; Martinowich et al., 2003). To test whether active demethylation can be induced in post-mitotic neurons, we applied the dCas9-Tet1 system to study the regulation of the BDNF gene. BDNF expression can be induced by neuronal activity accompanied by demethylation of its promoter IV (Chen et al., 2003; Martinowich et al., 2003). We designed 4 gRNAs targeting 11 CpGs in BDNF promoter IV (FIG. 11A) to determine whether dCas9-Tet1 can activate BDNF by inducing demethylation of this promoter (FIG. 3A). Mouse cortical neurons were isolated from E17.5 embryos and cultured for two days in vitro (DIV2) following a well-established experimental procedure for producing primary neuronal culture (Ebert et al., 2013). […] Neurons at day 3 in culture (DIV3) were infected with lentiviral vectors expressing dCas9-Tet1 with or without the 4 gRNAs at almost 100% transduction efficiency (FIG. 11E). At 48-hour post infection some of the cultures were treated with KCl to induce neuronal activity. […] We performed bisulfite sequencing to examine the methylation state of BDNF promoter IV. […]

Npas4 = Npas4 expression in mouse cortical neurons (RT-qPCR); format: cell-based; conditions: with the 4 BDNF promoter IV gRNAs
Protocol: FIGS. 11A-11L depict targeted demethylation of BDNF promoter IV by dCas9-Tet1 in neurons. […] PAM for each gRNA is highlighted by a red box. […] Note that cultured neurons were treated with AraC on DIV2 to halt cell division in glial cells and neural progenitors. […] FIG. 11C provides EDU labeling analysis for the mouse primary neurons over the course of KCl treatment for 24 hrs. Note that extremely few EDU positive cells were observed. Stained in red for EDU, green for MAP2 and DAPI for nuclei. Scale bar: 500 um. FIG. 11D Upper panel: provides quantification of neuronal density over the course of KCl treatment. The post-mitotic neuron density remains steadily around 4.5×10^4/cm2 over time. Bars represent mean±SD of three experimental replicates. Lower panel: provides quantification of the EDU positive cells over the course of KCl treatment. Less than 2% of the cells are EDU-positive over 24 hrs. Bars represent mean±SD of three experimental replicates. FIG. 11E provides confocal micrographs of BDNF induction by ectopic expression of dCas9-Tet1 and a set of 4 gRNAs targeting BDNF promoter IV. Stained in green for BDNF, magenta for MAP2, red for Cherry and blue for DAPI. […]
Cells were harvested using Trizol followed by Direct-zol (Zymo Research), according to manufacturer's instructions. […] Quantitative PCR reactions were prepared with SYBR Green (Invitrogen), and performed in 7900HT Fast ABI instrument. […]

[2] = with 4 gRNAs targeting BDNF promoter IV, DIV3 neurons, lentiviral infection 2 days

Row | Substance | induction of BDNF expression [1, 2] | induction of Npas4 expression (Npas4) | induction of BDNF expression ([1]; in the absence of gRNAs, DIV3 neurons, lentiviral infection 2 days) | induction of BDNF expression ([1]; with each individual gRNA targeting BDNF promoter IV)
1 | dC-dT: dCas9 fused to an inactive mutant form of Tet1 (H1672Y, D1674A), SEQ ID NO: 160 | no induction | – | – | –
2 | dCas9-Tet1: catalytically inactive Cas9 (dCas9) fused through NLS to the Tet1 catalytic domain, SEQ ID NO: 159; lentivirally expressed with gRNAs | about 6 fold | did not induce Npas4 expression | less than 2 fold | 2-3 fold

— patent publication US12060588B2, “Methods of editing DNA methylation” (Whitehead Institute for Biomedical Research, priority 2016, dated 2024)
